Values quoted from earlier work in PubChem BioAssay AID1259409 (Chemical Carcinogenesis Research Information System (CCRIS), 2018).

Test system: rodent chemically induced tumor inhibition, incidence and multiplicity
Test: CCRIS tumor inhibitor studies
Settings: Dose [Inhibitor]: 0, Route [Inhibitor]: ORAL

Oc1cccc(O)c1
tumour outcome (control, treated, inhibition, significance) (Carcinogen: N-BIS(2-HYDROXYPROPYL)NITROSAMINE, 53609-64-6, 0.8% IN DIET FOR 30 WK BEGINNING POST CARCINOGEN TREATMENT (STUDY DURATION: 32 WK), Species: RAT, Strain/Sex: F344/MALE, Target Tissue: Type of Lesion: LUNG: ADENOMA, Dose [Carcinogen]: 0.1% IN DRINKING WATER FOR 2 WK, Promoter: NONE USED): 100%, 90%, 10%, not calculated | tumour outcome (control, treated, inhibition, significance) (Carcinogen: N-BIS(2-HYDROXYPROPYL)NITROSAMINE, 53609-64-6, 0.8% IN DIET FOR 30 WK BEGINNING POST CARCINOGEN TREATMENT (STUDY DURATION: 32 WK), Species: RAT, Strain/Sex: F344/MALE, Target Tissue: Type of Lesion: THYROID: ADENOMA, Dose [Carcinogen]: 0.1% IN DRINKING WATER FOR 2 WK, Promoter: NONE USED): 20%, 30%, -50%, not calculated | tumour outcome (control, treated, inhibition, significance) (Carcinogen: N-BIS(2-HYDROXYPROPYL)NITROSAMINE, 53609-64-6, 0.8% IN DIET FOR 30 WK BEGINNING POST CARCINOGEN TREATMENT (STUDY DURATION: 32 WK), Species: RAT, Strain/Sex: F344/MALE, Target Tissue: Type of Lesion: THYROID: CARCINOMA, Dose [Carcinogen]: 0.1% IN DRINKING WATER FOR 2 WK, Promoter: NONE USED): 20%, 25%, -25%, not calculated | tumour outcome (control, treated, inhibition, significance) (Carcinogen: N-ETHYL-N-HYDROXYETHYLNITROSAMINE, 13147-25-6, 0.8% IN DIET FOR 36 WK BEGINNING 1 WK POST CARCINOGEN TREATMENT (STUDY DURATION: 40 WK), Species: RAT, Strain/Sex: WISTAR/MALE, Target Tissue: Type of Lesion: KIDNEY: MICROADENOMA, Dose [Carcinogen]: 0.1% IN DRINKING WATER FOR 3 WK, Promoter: NONE USED): 11/17 (65%), 12/16 (75%), -15%, not significant | tumour outcome (control, treated, inhibition, significance) (Carcinogen: N-ETHYL-N-HYDROXYETHYLNITROSAMINE, 13147-25-6, 0.8% IN DIET FOR 36 WK BEGINNING 1 WK POST CARCINOGEN TREATMENT (STUDY DURATION: 40 WK), Species: RAT, Strain/Sex: WISTAR/MALE, Target Tissue: Type of Lesion: KIDNEY: RENAL CELL TUMOR, Dose [Carcinogen]: 0.1% IN DRINKING WATER FOR 3 WK, Promoter: NONE USED): 14/17 (82%), 13/16 (81%), 1%, not significant | tumour outcome (control, treated, inhibition, significance) (Carcinogen: N-ETHYL-N-HYDROXYETHYLNITROSAMINE, 13147-25-6, 0.8% IN DIET FOR 36 WK BEGINNING 1 WK POST CARCINOGEN TREATMENT (STUDY DURATION: 40 WK), Species: RAT, Strain/Sex: WISTAR/MALE, Target Tissue: Type of Lesion: LIVER: HEPATOCELLULAR ADENOMA, Dose [Carcinogen]: 0.1% IN DRINKING WATER FOR 3 WK, Promoter: NONE USED): 10/17 (59%), 7/16 (44%), 25%, not significant | tumour outcome (control, treated, inhibition, significance) (Carcinogen: N-ETHYL-N-HYDROXYETHYLNITROSAMINE, 13147-25-6, 0.8% IN DIET FOR 36 WK BEGINNING 1 WK POST CARCINOGEN TREATMENT (STUDY DURATION: 40 WK), Species: RAT, Strain/Sex: WISTAR/MALE, Target Tissue: Type of Lesion: LIVER: HEPATOCELLULAR CARCINOMA, Dose [Carcinogen]: 0.1% IN DRINKING WATER FOR 3 WK, Promoter: NONE USED): 7/17 (41%), 3/16 (19%), 54%, not significant | tumour outcome (control, treated, inhibition, significance) (Carcinogen: N-NITROSOBIS(2-OXOPROPYL)AMINE, 60599-38-4, 1.5% IN DIET FOR 16 WK BEGINNING 2 WK POST CARCINOGEN TREATMENT (STUDY DURATION: 20 WK), Species: HAMSTER, Strain/Sex: SYRIAN/FEMALE, Target Tissue: Type of Lesion: GALL BLADDER: ADENOMA, Dose [Carcinogen]: 70 MG/KG IN SALINE FOLLOWED 2 WK LATER BY SECOND TREATMENT): 9/18 (50%), 10/16 (62%), -24%, not calculated | tumour outcome (control, treated, inhibition, significance) (Carcinogen: N-NITROSOBIS(2-OXOPROPYL)AMINE, 60599-38-4, 1.5% IN DIET FOR 16 WK BEGINNING 2 WK POST CARCINOGEN TREATMENT (STUDY DURATION: 20 WK), Species: HAMSTER, Strain/Sex: SYRIAN/FEMALE, Target Tissue: Type of Lesion: GALL BLADDER: CARCINOMA, Dose [Carcinogen]: 70 MG/KG IN SALINE FOLLOWED 2 WK LATER BY SECOND TREATMENT): 1/18 (6%), 1/16 (6%), 0%, not significant | tumour outcome (control, treated, inhibition, significance) (Carcinogen: N-NITROSOBIS(2-OXOPROPYL)AMINE, 60599-38-4, 1.5% IN DIET FOR 16 WK BEGINNING 2 WK POST CARCINOGEN TREATMENT (STUDY DURATION: 20 WK), Species: HAMSTER, Strain/Sex: SYRIAN/FEMALE, Target Tissue: Type of Lesion: LIVER: CHOLANGIOCARCINOMA, Dose [Carcinogen]: 70 MG/KG IN SALINE FOLLOWED 2 WK LATER BY SECOND TREATMENT): 16/18 (89%), 12/16 (75%), 16%, not calculated | tumour outcome (control, treated, inhibition, significance) (Carcinogen: N-NITROSOBIS(2-OXOPROPYL)AMINE, 60599-38-4, 1.5% IN DIET FOR 16 WK BEGINNING 2 WK POST CARCINOGEN TREATMENT (STUDY DURATION: 20 WK), Species: HAMSTER, Strain/Sex: SYRIAN/FEMALE, Target Tissue: Type of Lesion: LIVER: NEOPLASTIC NODULE, Dose [Carcinogen]: 70 MG/KG IN SALINE FOLLOWED 2 WK LATER BY SECOND TREATMENT): 18/18 (100%), 16/16 (100%), 0%, not significant | tumour outcome (control, treated, inhibition, significance) (Carcinogen: N-NITROSOBIS(2-OXOPROPYL)AMINE, 60599-38-4, 1.5% IN DIET FOR 16 WK BEGINNING 2 WK POST CARCINOGEN TREATMENT (STUDY DURATION: 20 WK), Species: HAMSTER, Strain/Sex: SYRIAN/FEMALE, Target Tissue: Type of Lesion: PANCREAS: ADENOCARCINOMA, Dose [Carcinogen]: 70 MG/KG IN SALINE FOLLOWED 2 WK LATER BY SECOND TREATMENT): 14/18 (78%), 10/16 (63%), 19%, not calculated
